Source: patent publication US20250135006A1, “AMPHIPHILIC TLR7/8 ADJUVANTS AND USES THEREOF” (Pfizer Inc., priority 2023, published 2025)

Key:
[1] = target: T1, human toll like receptor 7 (hTLR7) (Homo sapiens, UniProt Q9NYK1); test: hTLR7 in-vitro functional assay (HEK-Blue hTLR7 SEAP reporter); assay type: cell-based; settings: HEK-Blue hTLR7 cells, overnight incubation
T1 construct: host or cells: HEK293 (HEK-Blue hTLR7)
T1 sequence (Q9NYK1 27-1049): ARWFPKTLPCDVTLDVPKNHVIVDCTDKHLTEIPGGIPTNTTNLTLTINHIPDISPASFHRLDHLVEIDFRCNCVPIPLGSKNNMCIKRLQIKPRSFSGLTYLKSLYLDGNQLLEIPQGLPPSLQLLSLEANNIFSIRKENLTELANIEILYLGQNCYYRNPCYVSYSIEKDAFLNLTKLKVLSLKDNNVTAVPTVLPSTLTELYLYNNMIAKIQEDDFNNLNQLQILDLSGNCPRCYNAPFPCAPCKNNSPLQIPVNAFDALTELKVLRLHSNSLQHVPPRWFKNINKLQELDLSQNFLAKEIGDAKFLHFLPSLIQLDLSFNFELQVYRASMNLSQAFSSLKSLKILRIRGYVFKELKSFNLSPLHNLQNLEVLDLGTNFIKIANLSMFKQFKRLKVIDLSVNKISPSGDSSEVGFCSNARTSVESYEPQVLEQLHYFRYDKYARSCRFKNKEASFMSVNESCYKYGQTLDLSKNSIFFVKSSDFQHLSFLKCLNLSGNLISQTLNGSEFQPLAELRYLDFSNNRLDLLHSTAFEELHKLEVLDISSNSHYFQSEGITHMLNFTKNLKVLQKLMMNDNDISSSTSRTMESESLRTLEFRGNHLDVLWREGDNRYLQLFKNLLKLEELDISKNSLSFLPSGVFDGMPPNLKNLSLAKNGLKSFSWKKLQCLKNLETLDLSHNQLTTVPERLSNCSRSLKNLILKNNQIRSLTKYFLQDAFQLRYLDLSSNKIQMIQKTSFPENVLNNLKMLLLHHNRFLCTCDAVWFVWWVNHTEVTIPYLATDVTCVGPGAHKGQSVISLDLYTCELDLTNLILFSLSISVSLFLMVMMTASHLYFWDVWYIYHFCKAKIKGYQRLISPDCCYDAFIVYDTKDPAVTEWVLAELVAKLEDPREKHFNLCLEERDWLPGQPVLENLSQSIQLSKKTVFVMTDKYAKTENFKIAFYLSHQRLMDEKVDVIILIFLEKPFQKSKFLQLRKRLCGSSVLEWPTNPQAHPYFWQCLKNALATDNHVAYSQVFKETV
Excerpt: (§1) To determine the ability of test compounds to activate the human toll like receptor 7 (hTLR7) or human toll like receptor 8 (hTLR8), cell-based reporter systems were utilized. HEK293 cells stably overexpressing either hTLR7 or hTLR8 along with a reporter gene containing an optimized secreted embryonic alkaline phosphatase gene (SEAP), under the control of the IFN-b minimal promoter fused to five NF-kB and AP-1-binding sites, were obtained from Invivogen (HEK-Blue™ hTLR7, cat #Hkb-htlr7; HEK-Blue™ hTLR8, cat #Hkb-htlr8). Stimulation of hTLR7 or hTLR8 in these cells activates NF-kB and AP-1 and induces the production of SEAP which can be quantified using an alkaline phosphatase detection reagent.
(§2) On day one of the assay, compounds were prepared using 11-point half-log serial dilutions from a 10 mM DMSO stock solution and 50 nL was spotted into 384-well plates (PerkinElmer, cat #6007480). Positive and negative controls were also spotted within the assay plate and were used to determine percent effect during the analysis process. After resuspension in DMEM assay media containing FBS heat inactivated (10%), Glutamax (2 mM) and Penicillin/Streptomycin, 10,000 cells/20 ul/well were added to previously prepared compound plates. Plates were incubated overnight (16-20 hrs) at 37° C. in a 5% CO2 environment. Prewetted Microclime lids (Labcyte, LLS-0310) were used to prevent evaporation. On day two of the assay, QUANTI-Blue™ detection reagent was prepared by reconstituting QUANTI-Blue™ powder (InvivoGen, Rep-qb1) with 100 ml of sterile water and allowed to equilibrate to 37° C. for 15 minutes. 20 ul of QUANTI-Blue™ detection reagent was added to each well and plates were incubated at room temperature for 180 min. At the end of the incubation, plates were read on an Envision (Perkin Elmer) plate reader capturing absorbance at 650 nm.
(§3) Using Positive (tool compound) and Negative (DMSO) controls, the percent (%) effect was calculated for each sample using the following equation: […]
(§4) The % effect at each concentration of compound was calculated utilizing the ABase software suite (IBDS) and was relative to the amount of SEAP produced in the positive and negative control wells contained within each assay plate. The concentrations and % effect values for test compounds were fit using a 4-parameter logistic model in ABase and the concentration of compound that produced 50% response (EC50) was calculated.

[2] = target: T2, human toll like receptor 8 (hTLR8) (Homo sapiens, UniProt Q9NR97); test: hTLR8 in-vitro functional assay (HEK-Blue hTLR8 SEAP reporter); assay type: cell-based; settings: HEK-Blue hTLR8 cells, overnight incubation
T2 construct: host or cells: HEK293 (HEK-Blue hTLR8)
T2 sequence (Q9NR97 27-1041): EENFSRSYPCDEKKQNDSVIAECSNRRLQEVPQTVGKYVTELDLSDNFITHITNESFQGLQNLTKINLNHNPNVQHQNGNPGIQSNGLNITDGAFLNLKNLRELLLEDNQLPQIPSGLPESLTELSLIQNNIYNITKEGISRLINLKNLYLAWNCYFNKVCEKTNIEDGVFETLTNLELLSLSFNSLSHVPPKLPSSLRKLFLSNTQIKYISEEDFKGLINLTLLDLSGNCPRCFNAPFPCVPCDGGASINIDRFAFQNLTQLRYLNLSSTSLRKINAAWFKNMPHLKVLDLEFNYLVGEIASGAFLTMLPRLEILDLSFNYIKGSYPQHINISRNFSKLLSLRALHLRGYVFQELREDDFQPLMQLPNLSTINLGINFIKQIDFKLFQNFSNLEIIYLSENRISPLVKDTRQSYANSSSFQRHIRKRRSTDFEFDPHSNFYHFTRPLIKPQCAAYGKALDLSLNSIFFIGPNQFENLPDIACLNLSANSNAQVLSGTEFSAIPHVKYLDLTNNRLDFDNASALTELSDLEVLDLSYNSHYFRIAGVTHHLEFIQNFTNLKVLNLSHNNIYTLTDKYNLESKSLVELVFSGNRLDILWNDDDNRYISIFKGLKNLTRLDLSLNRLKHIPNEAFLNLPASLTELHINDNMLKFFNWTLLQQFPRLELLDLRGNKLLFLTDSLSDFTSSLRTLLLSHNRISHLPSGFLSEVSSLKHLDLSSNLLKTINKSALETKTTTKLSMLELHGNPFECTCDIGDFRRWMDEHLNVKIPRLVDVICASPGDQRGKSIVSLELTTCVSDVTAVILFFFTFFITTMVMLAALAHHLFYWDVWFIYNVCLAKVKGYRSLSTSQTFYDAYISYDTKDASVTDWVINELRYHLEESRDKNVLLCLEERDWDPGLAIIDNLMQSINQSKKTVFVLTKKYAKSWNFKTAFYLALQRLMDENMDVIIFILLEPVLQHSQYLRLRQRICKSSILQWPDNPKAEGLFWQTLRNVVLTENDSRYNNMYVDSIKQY
Excerpt: as §1, §2, §3, §4

Row | Structure (SMILES) | EC50 [1] [nM] | EC50 [2] [nM]
1 | CCCCc1nc2c(N)nc3cc(CCCN4CCN(CCCOCCOCCOCCOCCOCCOCCOCCOCCOCCOCCOCCOCCOCCOCCOCCOCCOCCOCCOCCOCCOCCOCCOCCOCCNC(=O)CCOCCOCCOCCOCCNC(=O)CCCOc5c(C)c(C)c6c(c5C)CC[C@@](C)(CCC[C@H](C)CCC[C@H](C)CCCC(C)C)O6)CC4)ccc3c2n1CC(C)(CO)CO [Compound 26, N-{75-[4-(3-{4-amino-2-butyl-1-[3-hydroxy-2-(hydroxymethyl)-2-methylpropyl]-1H-imidazo[4,5-c]quinolin-7-yl}propyl)piperazin-1-yl]-3,6,9,12,15,18,21,24,27,30,33,36,39,42,45,48,51,54,57,60,63,66,69,72-tetracosaoxapentaheptacontan-1-yl}-17-oxo-20-({(2R)-2,5,7,8-tetramethyl-2-[(4R,8R)-4,8,12-trimethyltridecyl]-3,4-dihydro-2H-1-benzopyran-6-yl}oxy)-4,7,10,13-tetraoxa-16-azaicosan-1-amide] | 404 | > 25000
2 | CCCCc1nc2c(N)nc3cc(CCCN4CCN(CCCOCCOCCOCCOCCNC(=O)O[C@H]5CC[C@@]6(C)C(=CC[C@H]7[C@@H]8CC[C@H]([C@H](C)CCCC(C)C)[C@@]8(C)CC[C@@H]76)C5)CC4)ccc3c2n1CC(C)(CO)CO [Compound 22, (20R)-cholest-5-en-3beta-yl {15-[4-(3-{4-amino-2-butyl-1-[3-hydroxy-2-(hydroxymethyl)-2-methylpropyl]-1H-imidazo[4,5-c]quinolin-7-yl}propyl)piperazin-1-yl]-3,6,9,12-tetraoxapentadecan-1-yl}carbamate] | 1160 | 11700

These reach a lower EC50 [1]. Values come first.

Row | EC50 [1] [nM] | EC50 [2] [nM] | Structure (SMILES)
3 | 312 | 8280 | CCCCc1nc2c(N)nc3cc(CCCN4CCN(C(=O)CCOCCOCCOCCOCCOCCOCCOCCOCCOCCOCCOCCOCCNC(=O)CCOCCOCCOCCOCCNC(=O)CCCOc5c(C)c(C)c6c(c5C)CC[C@@](C)(CCC[C@H](C)CCC[C@H](C)CCCC(C)C)O6)CC4)ccc3c2n1CC(C)(CO)CO [Compound 25, N-{39-[4-(3-{4-amino-2-butyl-1-[3-hydroxy-2-(hydroxymethyl)-2-methylpropyl]-1H-imidazo[4,5-c]quinolin-7-yl}propyl)piperazin-1-yl]-39-oxo-3,6,9,12,15,18,21,24,27,30,33,36-dodecaoxanonatriacontan-1-yl}-17-oxo-20-({(2R)-2,5,7,8-tetramethyl-2-[(4R,8R)-4,8,12-trimethyltridecyl]-3,4-dihydro-2H-1-benzopyran-6-yl}oxy)-4,7,10,13-tetraoxa-16-azaicosan-1-amide]
4 | 288 | 9900 | CCCCc1nc2c(N)nc3cc(CCCN4CCN(CCCOCCOCCNC(=O)O[C@H]5CC[C@@]6(C)C(=CC[C@H]7[C@@H]8CC[C@H]([C@H](C)CCCC(C)C)[C@@]8(C)CC[C@@H]76)C5)CC4)ccc3c2n1CC(C)(CO)CO [Compound 18, (20R)-cholest-5-en-3beta-yl [2-(2-{3-[4-(3-{4-amino-2-butyl-1-[3-hydroxy-2-(hydroxymethyl)-2-methylpropyl]-1H-imidazo[4,5-c]quinolin-7-yl}propyl)piperazin-1-yl]propoxy}ethoxy)ethyl]carbamate]
5 | 181 | 16000 | CCCCc1nc2c(N)nc3cc(CCCN4CCN(C(=O)CCOCCOCCOCCOCCOCCOCCOCCOCCOCCOCCOCCOCCOCCOCCOCCOCCOCCOCCOCCOCCOCCOCCOCCOCCNC(=O)O[C@H]5CC[C@@]6(C)C(=CC[C@H]7[C@@H]8CC[C@H]([C@H](C)CCCC(C)C)[C@@]8(C)CC[C@@H]76)C5)CC4)ccc3c2n1CC(C)(CO)CO [Compound 9, (3beta)-cholest-5-en-3-yl {75-[4-(3-{4-amino-2-butyl-1-[3-hydroxy-2-(hydroxymethyl)-2-methylpropyl]-1H-imidazo[4,5-c]quinolin-7-yl}propyl)piperazin-1-yl]-75-oxo-3,6,9,12,15,18,21,24,27,30,33,36,39,42,45,48,51,54,57,60,63,66,69,72-tetracosaoxapentaheptacont-1-yl}carbamate]
6 | 78 | 5080 | CCCCc1nc2c(N)nc3cc(CCCN4CCN(C(=O)CCOCCOCCOCCOCCOCCOCCOCCOCCOCCOCCOCCOCCNC(=O)CCOCCOCCOCCOCCNC(=O)O[C@H]5CC[C@@]6(C)C(=CC[C@H]7[C@@H]8CC[C@H]([C@H](C)CCCC(C)C)[C@@]8(C)CC[C@@H]76)C5)CC4)ccc3c2n1CC(C)(CO)CO [Compound 6, (3beta,20R)-cholest-5-en-3-yl {55-[4-(3-{4-amino-2-butyl-1-[3-hydroxy-2-(hydroxymethyl)-2-methylpropyl]-1H-imidazo[4,5-c]quinolin-7-yl}propyl)piperazin-1-yl]-15,55-dioxo-3,6,9,12,19,22,25,28,31,34,37,40,43,46,49,52-hexadecaoxa-16-azapentapentacont-1-yl}carbamate]
